Experimental data published in PubChem BioAssay (NCI).
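GI50: concentration for 50% inhibition of growth. At the TGI there is no net growth.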

Assays:
Assay in all cases: growth of human tumour cells (NCI), 384-well format
OVCAR-4 ovarian = test system: OVCAR-4 ovarian
NCI-H23 lung = test system: NCI-H23 lung
A549 NSCLC = test system: A549 NSCLC
OVCAR-5 ovarian = test system: OVCAR-5 ovarian
NCI/ADR-RES ovarian = test system: NCI/ADR-RES ovarian
MDA-MB-468 breast = test system: MDA-MB-468 breast
SNB-75 CNS = test system: SNB-75 CNS
SK-MEL-28 melanoma = test system: SK-MEL-28 melanoma
SN12C renal = test system: SN12C renal
786-0 renal = test system: 786-0 renal
CCRF-CEM leukemia = test system: CCRF-CEM leukemia
SF-268 CNS = test system: SF-268 CNS
PC-3 prostate = test system: PC-3 prostate
KM12 colon = test system: KM12 colon
SF-295 CNS = test system: SF-295 CNS
HT29 colon = test system: HT29 colon
MDA-MB-435 melanoma = test system: MDA-MB-435 melanoma
HS 578T breast = test system: HS 578T breast
SK-MEL-5 melanoma = test system: SK-MEL-5 melanoma
RXF 393 renal = test system: RXF 393 renal
SK-OV-3 ovarian = test system: SK-OV-3 ovarian
OVCAR-3 ovarian = test system: OVCAR-3 ovarian
IGROV1 ovarian = test system: IGROV1 ovarian
UACC-62 melanoma = test system: UACC-62 melanoma
DU-145 prostate = test system: DU-145 prostate
SR leukemia = test system: SR leukemia
A498 renal = test system: A498 renal
HOP-92 NSCLC = test system: HOP-92 NSCLC
MCF7 breast = test system: MCF7 breast
EKVX NSCLC = test system: EKVX NSCLC
HL-60(TB) leukemia = test system: HL-60(TB) leukemia
COLO 205 colon = test system: COLO 205 colon
HCT-15 colon = test system: HCT-15 colon
NCI-H522 lung = test system: NCI-H522 lung
RPMI-8226 leukemia = test system: RPMI-8226 leukemia
UO-31 renal = test system: UO-31 renal
UACC-257 melanoma = test system: UACC-257 melanoma
MOLT-4 leukemia = test system: MOLT-4 leukemia
NCI-H322M lung = test system: NCI-H322M lung
SW-620 colon = test system: SW-620 colon
MALME-3M melanoma = test system: MALME-3M melanoma
HOP-62 NSCLC = test system: HOP-62 NSCLC
HCC-2998 colon = test system: HCC-2998 colon
OVCAR-8 ovarian = test system: OVCAR-8 ovarian
M14 melanoma = test system: M14 melanoma
BT-549 breast = test system: BT-549 breast
SF-539 CNS = test system: SF-539 CNS
K-562 leukemia = test system: K-562 leukemia
MDA-MB-231 breast = test system: MDA-MB-231 breast

CC[C@H](Nc1nc(NCc2cnc(C)cc2C)c2ncn(C(C)C)c2n1)[C@@H](C)O
GI50 (OVCAR-4 ovarian): 316 nM | TGI (OVCAR-4 ovarian): 1290 nM | GI50 (NCI-H23 lung): 173 nM | TGI (NCI-H23 lung): 343 nM | GI50 (A549 NSCLC): 315 nM | TGI (A549 NSCLC): > 100000 nM | GI50 (OVCAR-5 ovarian): 248 nM | TGI (OVCAR-5 ovarian): 691 nM | GI50 (NCI/ADR-RES ovarian): 1540 nM | TGI (NCI/ADR-RES ovarian): 4670 nM | GI50 (MDA-MB-468 breast): 182 nM | TGI (MDA-MB-468 breast): 334 nM | GI50 (SNB-75 CNS): 183 nM | TGI (SNB-75 CNS): 424 nM | GI50 (SK-MEL-28 melanoma): 163 nM | TGI (SK-MEL-28 melanoma): 335 nM | GI50 (SN12C renal): 217 nM | TGI (SN12C renal): 487 nM | GI50 ([…]-0 renal): 227 nM | TGI (786-0 renal): 657 nM | GI50 (CCRF-CEM leukemia): 160 nM | TGI (CCRF-CEM leukemia): 307 nM | GI50 (SF-268 CNS): 166 nM | TGI (SF-268 CNS): 386 nM | GI50 (PC-3 prostate): 224 nM | TGI (PC-3 prostate): 594 nM | GI50 (KM12 colon): 239 nM | TGI (KM12 colon): 737 nM | GI50 (SF-295 CNS): 224 nM | TGI (SF-295 CNS): 522 nM | GI50 (HT29 colon): 198 nM | TGI (HT29 colon): 472 nM | GI50 (MDA-MB-435 melanoma): 245 nM | TGI (MDA-MB-435 melanoma): 693 nM | GI50 (HS 578T breast): 134 nM | TGI (HS 578T breast): 291 nM | GI50 (SK-MEL-5 melanoma): 139 nM | TGI (SK-MEL-5 melanoma): 291 nM | GI50 (RXF 393 renal): 175 nM | TGI (RXF 393 renal): 349 nM | GI50 (SK-OV-3 ovarian): 452 nM | TGI (SK-OV-3 ovarian): 3390 nM | GI50 (OVCAR-3 ovarian): 232 nM | TGI (OVCAR-3 ovarian): 516 nM | GI50 (IGROV1 ovarian): 277 nM | TGI (IGROV1 ovarian): 797 nM | GI50 (UACC-62 melanoma): 171 nM | TGI (UACC-62 melanoma): 397 nM | GI50 (DU-145 prostate): 302 nM | TGI (DU-145 prostate): 1260 nM | GI50 (SR leukemia): 137 nM | TGI (SR leukemia): 269 nM | GI50 (A498 renal): 240 nM | TGI (A498 renal): 648 nM | GI50 (HOP-92 NSCLC): 230 nM | TGI (HOP-92 NSCLC): 569 nM | GI50 (MCF7 breast): 333 nM | TGI (MCF7 breast): 1330 nM | GI50 (EKVX NSCLC): 267 nM | TGI (EKVX NSCLC): 757 nM | GI50 (HL-60(TB) leukemia): 148 nM | TGI (HL-60(TB) leukemia): 282 nM | GI50 (COLO 205 colon): 206 nM | TGI (COLO 205 colon): 508 nM | GI50 (HCT-15 colon): 296 nM | TGI (HCT-15 colon): 817 nM | GI50 (NCI-H522 lung): 180 nM | TGI (NCI-H522 lung): 341 nM | GI50 (RPMI-8226 leukemia): 149 nM | TGI (RPMI-8226 leukemia): 284 nM | GI50 (UO-31 renal): 353 nM | TGI (UO-31 renal): > 100000 nM | GI50 (UACC-257 melanoma): 232 nM | TGI (UACC-257 melanoma): 445 nM | GI50 (MOLT-4 leukemia): 184 nM | TGI (MOLT-4 leukemia): 334 nM | GI50 (NCI-H322M lung): 226 nM | TGI (NCI-H322M lung): 501 nM | GI50 (SW-620 colon): 205 nM | TGI (SW-620 colon): 780 nM | GI50 (MALME-3M melanoma): 298 nM | TGI (MALME-3M melanoma): 967 nM | GI50 (HOP-62 NSCLC): 225 nM | TGI (HOP-62 NSCLC): 638 nM | GI50 (HCC-2998 colon): 159 nM | TGI (HCC-2998 colon): 380 nM | GI50 (OVCAR-8 ovarian): 225 nM | TGI (OVCAR-8 ovarian): 551 nM | GI50 (M14 melanoma): 156 nM | TGI (M14 melanoma): 533 nM | GI50 (BT-549 breast): 138 nM | TGI (BT-549 breast): 294 nM | GI50 (SF-539 CNS): 185 nM | TGI (SF-539 CNS): 383 nM | GI50 (K-562 leukemia): 286 nM | TGI (K-562 leukemia): 960 nM | GI50 (MDA-MB-231 breast): 196 nM | TGI (MDA-MB-231 breast): 767 nM
